Assay results reported in patent US6365616B1, “Methimazole derivatives and tautomeric cyclic thiones to treat autoimmune diseases” (Sentron Medical, Inc., priority 1998, dated 2002).
Like-named read-outs stand apart in the source and are kept apart here.

Experiments:
[1] = test system: swine class I promoter (PD1); experiment: Luciferase assay, FRTL-5 cells stably transfected with class I promoter-luciferase chimeras; type: cell-based; details: 6H medium, 40 hours; for inhibition at 10 µM / inhibition at 25 µM / inhibition at 100 µM / inhibition at 1000 µM: Sus scrofa, FRTL-5
Text: The swine PD1 5′-flanking sequence-CAT chimeras (−1100, −203, and −127), as well as two mutants with the CRE site with −107 to −100 bp deleted (−203ΔCRE and −127ΔCRE) were used to create luciferase reporter gene constructs. The inserts were released by restriction enzyme digestion, purified from agarose gel using QIAEX (QIAGEN, Chatsworth, Calif.) and ligated in the NheI-HindIII site of the PGL-2 basic vector (PROMEGA, Madison, Wis.) using a DNA ligation kit from TAKARA biomedicals (TAKARA SHUZO Co). JM109 bacterial competent cells (PROMEGA, Madison, Wis.) were transformed with the ligation reaction and plated in agar plates for 12 h at 37° C. The colonies were picked and screened with minipreps using QIAprep spin plasmid kit (QIAGEN, Chatsworth, Calif.) and restriction enzyme digestion. The plasmids were then purified by CsCl gradient centrifugation.
The PD1-PGL-2 basic constructs and the Class II-PGL-2 basic constructs were stably transfected in the FRTL-5 cells using a Lipofectamine (GIBCO, Life Technologies, Inc.) method. Near confluent cells in 6H medium were cotransfected with 20 μg of plasmid DNA and 2 μg of a pcDNA3neo or a pPUR selection vector (CLONTECH, Palo Alto, Calif.). After 24-48 hours, 400 μg/ml of G418 (GIBCO, Life Technologies, Inc.) or 10 μM of puromycin (SIGMA) were added to the medium. After 3 weeks the antibiotic-resistant colonies were cloned by limiting dilution and screened to determine their interferon sensitivity. At least 5 cell lines of each construct were isolated, each of whose activity was increased by adding 100 U/ml γ interferon to the medium of the cells. The following data (Tables 10-13) were obtained with one clone of each of the class I or class II-luciferase chimera, but were representative of at least three other clones of each.
Luciferase activity was measured using the Luciferase assay system (PROMEGA, Madison, Wis.). Briefly, treated or untreated cells from a 100 mm culture dish were washed with PBS, scraped and collected in microfuge tubes. The pellet was dissolved in 100 μl 1× reporter lysis buffer and incubated at room temperature for 15 minutes. Cells were frozen in dry ice plus ethanol and thawed in water at room temperature. After vortexing for 10 sec, tubes were centrifuged at 12,000×g for 5 min. Twenty μl of the supernatant were mixed with 100 μl of Luciferase assay reagent and immediately placed in a luminometer. Light was measured for a period of 10 sec after a 2 sec delay.
Treatment of cells, maintained either in the presence of TSH or its absence, with 100 U/ml interferon, increased class I and class II promoter activity (Table 10). In this experiment FRTL-5 cells were grown to 80% confluency in 6H medium with TSH then treated with 100 U/ml γ-interferon, 5 mM MMI or both together. Luciferase activity was measured after 40 hours as described. Several points are notable. First, interferon increases both class I and class II promoter activity in the stable transfectants. Second, MMI inhibits both interferon-increased class I and interferon-increased class II promoter activity.

[2] = test system: protein/DNA complex with Fragment 127 of the MHC class I 5′-flanking region; experiment: Gel shift (EMSA) with downstream 127 class I probe, extracts from treated FRTL-5 cells; type: cell-based, rat; details: 5H cells treated 48 hours
Description: Cells were grown in 6H medium with 5 % calf serum for 6-7 days to 70-80% confluence, then shifted to 5H medium with 5 % calf serum for 5 days. TSH (1×10^−10 M), gamma-interferon (100 U/ml), MMI (5 mM), and different concentrations of MMI derivatives or tautomeric cyclic thiones (0.0001 to 10 mM) were added as appropriate for […]. Cells were then harvested and extracts were made by a modification of a method of Dignam, J., et al. Methods in Enzymology, 101:582-598 (1983). In brief, cells were harvested by scraping after being washed twice with cold phosphate-buffer saline (PBS). Subsequently they were pelleted, washed in cold PBS and then pelleted again. The pellet was resuspended in Dignam buffer C (20 mM Hepes buffer at pH 7.9, 1.5 mM MgCl2, 0.42 M NaCl, 25% glycerol, 0.5 mM dithiotreitol (DTT), 0.5 mM phenylmethylsulfonylfluoride (PMSF), 1 […] pepstatin). The final NaCl concentration was adjusted on the basis of cell pellet volume to 0.42 M and cells were lysed by repeated cycles of freezing and thawing. Extracts were then centrifuged at 10,000×g at 4° C. for 20 min. The supernatant was recovered, aliquoted and stored at −70° C.
Binding reactions were performed in a volume of 20 μl for 30 min at room temperature. The typical reaction mixture contained 1.5 fmol of ^32P DNA, 3 μg of cell extracts, 1 to 3 μg of poly (dI-dC) in 10 mM Tris-Cl (pH 7.9), 1 mM MgCl2, 1 mM DTT, 1 mM ethylenediamine tetra acetic acid (EDTA), and 5 % glycerol. After incubation, reaction mixtures were subjected to electrophoresis in 4% polyacrylamide gels for 90-120 min at 160 V in 0.5× TBE (Sambrook, J., et al., Molecular Cloning: A Laboratory Manual, 2nd ed. Cold Spring Harbor Press, NY, 2: 11.23-11.44 (1989)), then dried and autoradiographed. Probes were labeled with [α32P] deoxy CTP by Klenow enzyme (In Vitro labeling kit, Amersham) following the manufacturer's instructions, or by [γ^32P] ATP using T4 polynucleotide kinase. Labeled probes were then purified either through G-50 columns (5 prime→3 Prime) or on an 8% polyacrylamide gel.
FIG. 3 denotes the sequence of the downstream region of the PD1 promoter. The location of enhancer A (−180 to −170 bp), the interferon response element (IRE; −161 to −150 bp), and the cAMP response element (CRE; −107 to −100 bp) are noted. The downstream silencer is between −127 and −80 bp (Saji, et al., ibid, 20096-20107 (1997)). Using a 127 bp probe, −125 to +1 bp, MMI (lane 4) or TSH (lane 10) induce the formation of a rapidly migrating protein/DNA complex (FIG. 4) which is clearly evident 24 to 48 h after SH cells are treated. MMI derivatives can also increase this complex, as illustrated for compound 8 in FIG. 4 (lanes 1 to 3). The time most suitable for measurement is 24 to 48 h (FIG. 4) the complex can be quantitated by comparison to control (lane 7 or 9) using densitometry or the phosphoimager as noted earlier. In this case, the increase over control (set at 1) is measured in arbitrary units relative to the maximal increase induced by 5 mM MMI which is arbitrarily set at 10. The results using all 11 compounds in Table 1, each added to cells at different concentrations 48 hours before extracts were prepared, are summarized in Table 3.

[3] = 10 μM, 100 U/ml γ-interferon, read-out: % inhibition of IFN-increased p(−203)LUC class I promoter activity
[4] = 25 μM, read-out: % inhibition of basal p(−203)LUC class I promoter activity
[5] = 100 μM, read-out: % inhibition of basal p(−203)LUC class I promoter activity
[6] = 100 μM, 100 U/ml γ-interferon, read-out: % inhibition of IFN-increased p(−203)LUC class I promoter activity
[7] = 1.0 mM, read-out: % inhibition of basal p(−203)LUC class I promoter activity
[8] = 1.0 mM, 100 U/ml γ-interferon, read-out: % inhibition of IFN-increased p(−203)LUC class I promoter activity

| Structure (SMILES) | % inhibition of IFN-increased p(−203)LUC class I promoter activity ([1]; 10 μM, 100 U/ml γ-interferon) | % inhibition of basal p(−203)LUC class I promoter activity ([1]; 25 μM) | % inhibition of basal p(−203)LUC class I promoter activity ([1]; 100 μM) | % inhibition of IFN-increased p(−203)LUC class I promoter activity ([1]; 100 μM, 100 U/ml γ-interferon) | % inhibition of basal p(−203)LUC class I promoter activity ([1]; 1.0 mM) | % inhibition of IFN-increased p(−203)LUC class I promoter activity ([1]; 1.0 mM, 100 U/ml γ-interferon) | % increase over control relative to the maximal (5 mM) MMI-increased silencer complex which is set at 10 ([2]; 10 μM) | % increase over control relative to the maximal (5 mM) MMI-increased silencer complex which is set at 10 ([2]; 100 μM) | % increase over control relative to the maximal (5 mM) MMI-increased silencer complex which is set at 10 ([2]; 1 mM) | inhibition at 10 µM [1, 3] | inhibition at 25 µM [1, 4] | inhibition at 100 µM [1, 5] | inhibition at 100 µM [1, 6] | inhibition at 1000 µM [1, 7] | inhibition at 1000 µM [1, 8] | % increase over control relative to the maximal (5 mM) MMI-increased silencer complex which is set at 10 ([2]; 5 mM) |
| --- | --- | --- | --- | --- | --- | --- | --- | --- | --- | --- | --- | --- | --- | --- | --- | --- |
| Cn1ccn(C)c1=S [Compound 8, N-Methylmethimazole] | 0% | 9 ± 6% | 44 ± 10% | 42 ± 14% | 51 ± 7% | 77 ± 10% | 0% | 3 ± 2% | 9 ± 1% |  |  |  |  |  |  |  |
| Cc1cnc(S)n1C [Compound 9, 5-Methylmethimazole] |  |  |  |  |  |  | 0% | 0% | 1.5 ± 1.5% | 0% | 0% | 0% | 0% | 10 ± 10% | 15 ± 11% | 2.5 ± 1% |
| Cn1c(-c2ccccc2)cnc1S [Compound 10, 5-Phenylmethimazole] |  |  |  |  |  |  | 3 ± 1.5% | 7 ± 1% | 10 ± 1% | 45 ± 7% | 41 ± 5% | 51 ± 3% | 90 ± 17% | 52 ± 8% | 90 ± 13% |  |
